The structures appear in SMILES notation. A value given as a limit tells only on which side of the number the result lay.

Sequence of Recombinant human HSD17B13 (Q7Z5P4 20-300): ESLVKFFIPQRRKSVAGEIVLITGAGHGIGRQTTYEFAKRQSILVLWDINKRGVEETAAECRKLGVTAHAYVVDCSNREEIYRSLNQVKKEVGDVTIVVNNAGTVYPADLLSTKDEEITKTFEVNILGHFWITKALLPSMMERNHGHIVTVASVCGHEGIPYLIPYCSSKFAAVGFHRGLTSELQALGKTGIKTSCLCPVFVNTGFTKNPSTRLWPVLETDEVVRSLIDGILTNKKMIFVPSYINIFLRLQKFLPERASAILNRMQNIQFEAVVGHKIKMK

The assay has as its target Recombinant human HSD17B13 (Homo sapiens (Human), UniProt Q7Z5P4). Kind of assay: HSD17B13 rapid-fire mass spectrometry assay (RF/MS assay). The class given is biochemical. The conditions noted are these: inhibition of HSD17B13; LTB4 10 μM, NAD+ 0.5 mM, RT 3 h; IC50 ranges A-E. In short, it runs like this: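 Product 12-oxo-LTB4 and substrate LTB4 quantified by RapidFire triple-quad MS in negative mode, giving percent conversion. Reaction: 80 nM recombinant hHSD17B13, 10 μM LTB4, 0.5 mM NAD+, compound up to 100 μM, pH 7.5, RT, 3 h. Variable-slope fit gave IC50; run in duplicate.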
Broadly, the IC50 is the concentration that gives 50% inhibition. On to `COc1cc(C(=O)O)ccc1NS(=O)(=O)N1CCC(c2nnn[nH]2)CC1` [Example 313], for which the IC50 lay in the range of 1000 to 100000 nM. Consider `COc1cc(C(=O)O)ccc1NS(=O)(=O)N1CCN(c2nccs2)CC1` [Example 314], for which the IC50 is more than 100000 nM. With `COc1cc(C(=O)O)ccc1NS(=O)(=O)N1CCN(C2CCCC2)CC1` [Example 315], the IC50 lay in the range of 1000 to 100000 nM. In the case of `COc1cc(C(=O)O)ccc1NS(=O)(=O)c1ccc(-c2ccc(F)cc2)cc1` [Example 316], the IC50 lay in the range of 100 to 500 nM. As for `COc1cc(C(=O)O)ccc1NS(=O)(=O)N1CCN(c2ccc(OC(F)(F)F)cc2)C(=O)C1` [Example 317], the IC50 fell in the range of 1000 to 100000 nM. For the compound `COc1cc(C(=O)O)ccc1NS(=O)(=O)C1CCN(c2ncccn2)CC1` [Example 318], the IC50 was in the range of 1000 to 100000 nM. Then `COc1cc(C(=O)O)ccc1NS(=O)(=O)c1cccc(-c2ccc(F)cc2)c1` [Example 319], with 1000 to 100000 nM; and `COc1cc(C(=O)O)ccc1NS(=O)(=O)N1CCCC(Oc2ccccc2)C1` (stereo not drawn) [Example 320, 3-methoxy-4-((3-phenoxypiperidine)-1-sulfonamido)benzoic acid], with 1000 to 100000 nM; and `COc1cc(C(=O)O)ccc1NS(=O)(=O)N1CCN(c2cccc(-c3ccccc3)c2)CC1` [Example 321], with 1000 to 100000 nM. For the compound `COc1cc(C(=O)O)ccc1NS(=O)(=O)c1csc(-c2ccc(C(=O)O)cc2OC)n1` [Example 322], the IC50 lay in the range of 1000 to 100000 nM.

On to `COc1cc(C(=O)O)ccc1NS(=O)(=O)c1ccc2sc(-c3ccc(F)cc3)nc2c1` [Example 323], for which the IC50 lay in the range of 1000 to 100000 nM. Regarding `COc1cc(C(=O)O)ccc1NS(=O)(=O)c1ccc(-c2ccc(F)cc2)c(OC)c1` [Example 324], the IC50 was in the range of 100 to 500 nM.

For the compound `COc1cc(C(=O)O)ccc1NS(=O)(=O)c1ccc(-c2ccc(C3CCCCC3)cc2)cc1OC(F)(F)F` [Example 325], the IC50 was in the range of 1000 to 100000 nM. Then `COc1cc(C(=O)O)ccc1NS(=O)(=O)c1ccc(-c2ccc(C3CCCCC3)cc2)c(F)c1` [Example 326, 4-((4′-cyclohexyl-2-fluoro-[1,1′-biphenyl])-4-sulfonamido)-3-methoxybenzoic acid], with 100 to 500 nM. As to `COc1cc(C(=O)O)ccc1NS(=O)(=O)Nc1ccc(C(=O)O)cc1OC` [Example 327], the IC50 is 1000 to 100000 nM.

With `COc1cc(C(=O)O)ccc1NS(=O)(=O)Nc1ccc2nc(-c3ccc(F)cc3)sc2c1` [Example 328, 4-((N-(2-(4-fluorophenyl)benzo[d]thiazol-6-yl)sulfamoyl)amino)-3-methoxybenzoic acid], the IC50 was in the range of 1000 to 100000 nM.

Turning to `COc1cc(C(=O)O)ccc1NS(=O)(=O)Nc1nc2ccc(-c3ccc(F)cc3)cc2s1` [Example 329], the IC50 is 1000 to 100000 nM. As to `COc1cc(C(=O)O)ccc1NS(=O)(=O)N1C[C@H]2CN(C(=O)OC(C)(C)C)C[C@H]2C1` [Example 331, 4-(((3aR,6aS)-5-(tert-butoxycarbonyl)octahydropyrrolo[3,4-c]pyrrole)-2-sulfonamido)-3-methoxybenzoic acid], the IC50 was 1000 to 100000 nM.

For `COc1cc(C(=O)O)ccc1NS(=O)(=O)c1ccc(-c2cnc(-c3ccccc3)s2)c(F)c1` [Example 332], the IC50 was 100 to 500 nM. As for `COc1cc(C(=O)O)ccc1NS(=O)(=O)c1ccc(-c2ccc(F)cc2)cc1F` [Example 333], the IC50 lay within 100 to 500 nM.

`COc1cc(C(=O)O)ccc1NS(=O)(=O)N1Cc2ccc(-c3ccc(F)cc3)cc2C1` [Example 334]: the IC50 was in the range of 100 to 500 nM. For `COc1cc(C(=O)O)ccc1NS(=O)(=O)c1ccc(C#CC2CCCC2)c(F)c1` [Example 335, 4-((4-(cyclopentylethynyl)-3-fluorophenyl)sulfonamido)-3-methoxybenzoic acid], the IC50 is less than 100 nM. Regarding `COc1cc(C(=O)O)ccc1NS(=O)(=O)c1csc(-c2ccc(C3CCC(C)(C)CC3)cc2)n1` [Example 336], the IC50 was less than 100 nM. Regarding `COc1cc(C(=O)O)ccc1NS(=O)(=O)c1ccc(-c2cnc(-c3ccccc3)s2)c(F)c1` [Example 337], the IC50 is 100 to 500 nM.
